Assay results from patent US8614064B2, “Methods of diagnosing atherosclerosis by measuring ApoCI” (The Johns Hopkins University, priority 2003, dated 2013).

Tests used:
[1] = system: human aortic smooth muscles cells (ASMC); experiment: Fluorescence microscope quantitative assay of apoptotic death (DAPI staining); type: cell-based; conditions: C2-ceramide 10 μmol/L + ApoCI 2.5 μg/mL + GW4869 20 μmol/L, 24 h; control 2.2%
Experimental: (§1) FIGS. 1A-1C depict the effect of apolipoproteins on apoptosis in human aortic smooth muscles cells (ASMC). ASMC were grown on sterilized glass cover slips and incubated for 24 hours with media alone (control), ApoCIII (negative control, 2.5 μg/mL medium), ApoCI (2.5 μg/mL medium), ApoCI-enriched HDL (1 μg apoA-I/mL medium), or ApoCI-poor HDL (5 μg apoA-I/mL medium) for 24 hours. Cells were then fixed with ethanol-acetic acid (3:1 volume/volume) and washed 3 times with phosphate-buffered saline. The cells were then stained with DAPI reagent, mounted on a glass cover slide, and subjected to fluorescence microscopy. FIG. 1A: The nucleus of normal cells stains blue and the nucleus of apoptotic cells stains is fragmented white. FIG. 1B: 300 to 500 cells in each sample were counted and the percent of apoptotic cells was plotted. Values are mean±SD; **P<0.01, ***P<0.001. FIG. 1C: DNA ladder assay. Confluent cultures of ASMC were incubated with control medium alone, ApoCI (2.5 μg/mL medium), ApoCIII (negative control, 2.5 μg/mL medium), and TNF-α (positive control, 20 ng/mL medium). Genomic DNA was extracted and 10 μg DNA was subjected to agarose gel electrophoresis. The gels were calibrated with commercially available DNA standards. After electrophoresis, the gels were stained with ethidium bromide and then photographed.
FIGS. 2A-2B depict the effect of ApoCI, the N-SMase inhibitor, GW4869, and C-2 ceramide on apoptosis in cultured human ASMC. FIG. 2A: ASMC (1×10^3) were seeded on sterilized glass cover slips and grown in tissue culture medium with 10% fetal calf serum for 48 hours. […] Thirty minutes later, vehicle DMSO, ApoCI (2.5 μg/mL), or C2-ceramide (10 μmol/L) were added to dishes, and the incubation continued for 24 hours. The cells were then fixed with ethanol-acetic acid (3:1 v/v), stained with DAPI reagent, assessed by fluorescent microscopy, and photographed. Top to bottom: control cells; cells incubated with ApoCI± the N-SMase inhibitor, GW4869; and cells incubated with ApoCI GW4869, and C2-ceramide. FIG. 2B: The DAPI-stained ASMC from the four experimental conditions described was analyzed for quantitative apoptosis. Mean (SD) from 4 experiments. *P<0.05.
Human AoSMC that were negative for mycoplasma, hepatitis B and C and HIV-1 were purchased from Clonetics (San Diego, Calif.) and cultured in Dulbecco's minimal essential medium (Invitrogen, Carlsbad, Calif.) with 10% fetal bovine serum (Hyclone, Salt Lake City, Utah), 100-units/ml penicillin, 100-μg/ml streptomycin to confluence. The cells were incubated in serum-free medium for 30 min prior to initiating the experiments. Cells were then washed and harvested in PBS, and centrifuged at 1500 rpm for 5 min at 4° C. Protease inhibitors were then added and the pellets stored frozen at −30° C. until use.
1×10^3 cells were grown on sterilized glass cover slips in 6-well trays and treated with ApoCI (2.5 μg/ml medium), ApoCIII (2.5 μg/ml medium), tumor necrosis factor (TNF)-α (30 ng/ml), ApoCI-enriched HDL (1 μg apoA-I/ml medium) and ApoCI-poor HDL (5 μg apoA-I/ml medium). After 24 h incubation, the medium was removed, cells fixed with ethanol:acetic acid […] and stored at 4° C. Next, the fixing solution was removed and cells stored frozen at −30° C. Cover slips were mounted on the microscope slides and stained with DAPI reagent (4,6-diamino-2-phenylindol, dihydrochloride). The stained nuclei were visualized by fluorescence microscopy (Zeiss Axiovert 25). Apoptotic cells were determined after counting—500 cells in a double blind fashion.

[2] = system: human aortic smooth muscles cells (ASMC); experiment: DNA laddering assay; type: cell-based; conditions: ApoCI or ApoCIII 2.5 μg/mL, TNF-α positive control
Experimental: as §1
Cells were treated with either TNF-α (30 ng/ml), ApoCI or ApoCIII (2.5 μg/ml) for 6 h. The cells were then washed twice with minimal essential medium and harvested with buffer (10 mM HEPES, pH 7.4. 5 mM EDTA, 0.25 mM EGTA, 50 mM NaF, 5 mM β-mercaptoethanol, 0.35 M sucrose, 0.1% Nonidet and protease inhibitors, 1 mM phenylmethylsulfonyl fluoride, 2 μg/ml leupeptin and 5 μg/ml pepstatin), and pelleted. Genomic DNA was prepared employing standard protocol. Genomic DNA was subjected to electrophoresis, stained with ethidium bromide and the gel was photographed. The gel was calibrated using DNA fragments of known molecular weight.

N-SMase = experiment: Neutral sphingomyelinase assay in treated ASMC ([14C]sphingomyelin substrate); type: cell-based, human; conditions: 5 min; ApoCI 2.5 μg/mL, TNF-α 20 ng/mL, ApoCI-enriched HDL 1 μg apoA-I/mL; control 22 nmol/h per mg protein = 100%
Experimental: FIGS. 3A-3C depict the effects of ApoCI, ApoCIII, TNF-α, ApoCI-enriched HDL, and ApoCI-poor HDL on the activity of N-SMase in ASMC. Confluent cultures of ASMC were preincubated for 30 minutes with serum-free (control) medium, then ApoCI (2.5 μg/mL medium), ApoCIII (2.5 μg/mL medium), TNF-α (20 ng/mL medium) (FIG. 3A, top), or ApoCI-enriched HDL (1 μg apoAI/mL medium), or ApoCI-poor HDL (5 μg apoA-I/mL medium) (FIG. 3B, middle) were added individually to cells. The cells were then incubated and harvested at the indicated time points, and the activity was of N-SMase determined using [^14C]sphingomyelin as substrate. The N-SMase activity in control cells was 22 nmol/h per milligram cell protein, and this value was considered as 100% activity. In a separate experiment (FIG. 3C bottom), cells (0.5×10^5) were seeded in P60 Petri dishes and grown in DMEM supplemented with 10% fetal bovine serum for 5 days. After preincubation of cells for 30 minutes in serum-free medium, increasing amounts of ApoCI were added. After incubation for 10 minutes, cells were harvested, and N-SMase activity was measured.
After stimulation with ApoCI ApoCI-enriched HDL and ApoCI-poor HDL, the cells were washed with 5 ml of PBS and harvested. The pellets were stored frozen at −70° C. and resuspended in 0.5 ml of buffer (100 mM Tris-HCl pH 7.4, 0.1% Triton X-100, 1 mM EDTA and protease inhibitors). The cell suspension was sonicated 3 times (3-s bursts) using a probe sonicator and centrifuged at 500×g at 4° C. for 5 min. The supernatant was used as the enzyme source. 100 μg of protein was assayed for neutral sphingomyelinase activity in a buffer consisting of 50 mM Tris-HCl, pH 7.4, 0.1% Triton X-100, 0.1 mg of bovine serum albumin, 5 mM MgCl2 and […] of [^14C]sphingomyelin (specific activity 50 mCi/mmol, from American Radiolabled Chemicals (St. Louis, Mo.). The samples were incubated at 37° C. for 2 h and terminated with the addition of 1 ml of 10% trichloroacetic acid. The precipitate was pelleted (1000×g at 4° C. for 30 min) and 1 ml of the supernatant was extracted with 1 ml of anhydrous diethyl ether. About 0.5 ml of the aqueous phase was removed for liquid scintillation counting (Ghosh, N., and Chatterjee, S. (1998) J. Biol. Chem. 264, 12554-12561).

Row | Molecule | percent apoptotic cells with C2-ceramide added to ApoCI and GW4869 [1] | DNA laddering on agarose gel (FIG. 1C) [2] | increase in the activity of N-SMase at 5 minutes (N-SMase)
1 | CCCCCCCCCCCCC/C=C/[C@@H](O)[C@H](CO)NC(C)=O [C2-ceramide] | ~12.5% |  | 
2 | tumor necrosis factor α [TNF-α] |  | exhibited DNA laddering | ~2 fold
